Measurements published in US10293021B2, “Conjugates and prodrugs for treating cancer and inflammatory diseases” (CENTRE NATIONAL DE LA RECHERCHE SCIENTIFIQUE, priority 2014, dated 2019).
Where a SMILES comes first, the peptide text is derived from it. [ ]: non-standard residue; d: D form. The star is where a group is joined. Dolaproine = CO[C@@H]([C@@H]1CCCN1)[C@@H](C)C(=O)O; Dil = CC[C@H](C)[C@H](NC)[C@@H](CC(=O)O)OC; X1 = C[C@@H](N*)[C@@H](O)c1ccccc1; NMeV = CN[C@H](C(=O)O)C(C)C

Key:
[1] = tested on: orthotopically grafted human breast tumor of MDA-MB-231 type (MDA-MB-231-Luc cells); assay: Therapeutic efficacy in vivo on a murine model of human breast cancer; set-up: species or system Balb/c Nude mice
Description: The therapeutic efficacy of the conjugate of formula (III), as synthesized according to the reaction protocol described in example 1, was evaluated on 6-week-old female Balb/c Nude mice (Charles River France Laboratories—L'Arbresle) as indicated in example 3.
The MDA-MB-231 cells originate from a mammary adenocarcinoma from a person. The MDA-MB-231 mammary cancer cell line was supplied by Caliper LifeSciences (Roissy, France). These cells were chosen because they make it possible to generate tumors of hypoxic nature, reflecting the clinical pathological situation.
These cells are modified to express the luciferase gene. The cells were cultured in […] flasks and maintained in a humidified incubator at 37° C. under an atmosphere consisting of air, with Eagle's Minimal Essential Medium (EMEM) supplemented with 10% of fetal calf serum, 1% of L-glutamine, 1% of sodium pyruvate, 1% of non-essential amino acids, 2% of sodium bicarbonate and 1% of penicillin and streptomycin.
For the implantations, the abdomens of the mice were disinfected with an iodinated povidone solution (Betadine®, ASTA Medica, Belgium). The needle was inserted into the subcutaneous space, at the level of the lower left teat. 2×10^6 MDA-MB-231-Luc cells in 100 μl of PBS was slowly injected using a 27-caliber needle. The needle was then slowly withdrawn. For this, the mice will be anesthetized by inhalation of isoflurane (2% in air).
The mice (6 animals per group) received a treatment 15 days after the tumor implantations. The intravenous injections were carried out once a week for 5 weeks with doses of 4 mg/kg of conjugate of formula (III) (D15, D22, D29, D36 and D43). The control groups were treated either with MMAE alone with a dose of 0.3 mg/kg, or with the excipient consisting of a mixture of DMSO and PBS (5%/95%).
The evolution of the tumor volume was monitored by 3D echography. The measurements were carried out as described in example 2, on days 7, 11, 15, 19, 22, 25, 27, 29, 32, 34, 36, 39, 43 and 50.

[2] = tested on: orthotopically grafted human pancreatic tumor of Mia Paca type (Mia PaCa 2-Luc cells); assay: Therapeutic efficacy in vivo on a murine model of human pancreatic cancer (two weekly injections, D7 and D14); set-up: species or system Swiss Nude mice; conditions: 2 injections (D7 and D14), echography over 70 days, FIG. 2
Description: The therapeutic efficacy of the conjugate of formula (III), as synthesized according to the reaction protocol described in example 1, was evaluated on 6-week-old female Swiss Nude mice (Charles River France Laboratories, l'Arbresle). The animals were acclimatized for 7 days in the laboratory before the experiment. The mice were housed in plastic cages equipped with filtering lids (HEPA filter), in a ventilated cage rack, housed at a temperature of 20±2° C. with a light/dark cycle of 12/12 hours, with free access to water and food ad libitum.
The Mia Paca 2 cells originate from a pancreatic adenocarcinoma from a person. The Mia Paca 2 pancreatic cancer cell line was supplied by the American Type Culture Collection (Rockville, Md.). These cells were chosen since they make it possible to generate tumors of hypoxic nature, reflecting the clinical pathological situation.
These cells were modified to express the luciferase gene (Mia PaCa 2-Luc). The cells were cultured in […] flasks and maintained in a humidified incubator at 37° C. in 5% CO2 with Dulbecco's Modified Eagle Medium (DMEM) supplemented with 10% of fetal calf serum, 2.5% of horse serum, 1% of L-glutamine and 1% of penicillin and streptomycin.
For the implantations, the abdomens of the mice were disinfected with an iodinated povidone solution (Betadine®, ASTA Medica, Belgium). A 1 cm incision was made in the upper left quadrant of the abdomen. The end of the tail of the pancreas was seized and the pancreas and also the spleen were gently externalized in a lateral direction so as to be fully exposed. The needle was inserted into the tail of the pancreas and positioned just in the region of the head of the pancreas. 2×10^6 Mia PaCa 2-Luc cells in 50 μl of PBS were slowly injected using a 27-caliber needle. The spleen was then put back into the appropriate position in the abdomen and the skin and the peritoneum were sutured with a 5.0-diameter resorbable thread. […]
The evolution of the tumor volume was monitored by echography. […]

SMILES | evolution of the tumor volume (antitumor activity versus control animals) ([1]; MMAE alone 0.3 mg/kg (FIG. 4 legend: 0.5 mg/kg) intravenous once a week for 5 weeks, FIG. 4 panel B) | evolution of the tumor volume ([2]; 0.3 mg/kg intravenous) | visible side effects ([1]; 4 mg/kg intravenous once a week for 5 weeks) | evolution of the tumor volume ([1]; 4 mg/kg intravenous once a week for 5 weeks (D15-D43), echography for 50 days, FIG. 4 panel C) | evolution of the tumor volume ([2]; 2 mg/kg intravenous) | evolution of the tumor volume ([2]; 4 mg/kg intravenous)
CC[C@H](C)[C@@H]([C@@H](CC(=O)N1CCC[C@H]1[C@H](OC)[C@@H](C)C(=O)N[C@H](C)[C@@H](O)c1ccccc1)OC)N(C)C(=O)[C@@H](NC(=O)[C@@H](NC)C(C)C)C(C)C [MMAE, monomethyl auristatin E, reference compound] (H-[NMeV]V[Dil][Dolaproine]-X1) | only a very modest antitumor activity | significant increase in the tumor volume is observed starting from day 35 |  |  |  | 
CC[C@@H](C)[C@H]([C@H](CC(=O)N1CCC[C@@H]1[C@@H](OC)[C@H](C)C(=O)N[C@@H](C)[C@H](O)c1ccccc1)OC)N(C)C(=O)[C@H](NC(=O)[C@@H](C(C)C)N(C)C(=O)OC(Cc1cn(CCOCCOCCOCCOCCOCCOCCOCCOCCOCCOCCNC(=O)CCCCCN2C(=O)C=CC2=O)nn1)c1ccc(O[C@@H]2OC(C(=O)O)[C@@H](O)[C@H](O)C2O)c([N+](=O)[O-])c1)C(C)C (stereo partly drawn) [conjugate of formula (III)] |  |  | without visible side effects | total and long-lasting regression of the tumor | the progression of the tumor volume is slower than with the control or the non-functionalized MMAE | total absence of tumor growth
